Here are results for one compound from paper PMC7352759, “S(+)-(2E)-N-(2-Hydroxypropyl)-3-Phenylprop-2-Enamide (KM-568): A Novel Cinnamamide Derivative with Anticonvulsant Activity in Animal Models of Seizures and Epilepsy” (International Journal of Molecular Sciences, 2020).

Series [1] deals with CF-1 mice. In words: Intravenous metrazol seizure threshold test (ivMET). It is filed as in vivo. As to conditions: 0.25 h, mean ± SEM; for Time to clonus / Time to twitch: ten animals. As to the method: Then, 0.5% metrazol solution was then infused at a previously determined time-to-peak effect (0.25 h). The infusion was done at a constant rate of 0.34 mL/min through a tube cannulating a lateral tail vein of a test animal. The time from the start of the infusion to the appearance of the first twitch (time to twitch in sec) and the onset of sustained clonus (time to clonus in sec) were recorded. These times were also converted to the dose of metrazol (in mg/kg) causing first twitch and clonus.

Series [2] can be described thus: Ames microplate format (MPF) assay, TA98. As to conditions: Salmonella typhimurium. The text has this: The Ames microplate format (MPF) mutagenicity assay (Xenometrix, Allschwil, Switzerland) was used to test KM-568 mutagenicity. Growth, exposure, and indicator media, positive control chemicals, and four Salmonella typhimurium strains TA98, TA100, TA1535 and TA1537 were included in the kit. TA100 and TA1535 strains detect base substitution mutations, whereas TA98 and TA1537 indicate frameshift mutations. The strains of bacteria included in a kit are in compliance with the Organization for Economic Cooperation and Development (OECD) 471 Guideline for Testing of Chemicals.
The assay is a liquid microplate modification of the traditional Salmonella test. During the procedure, bacteria are exposed to different concentrations of a test compound for 90 min in a medium containing sufficient histidine to support cell divisions. Then, the cultures are diluted in a pH indicator medium lacking histidine and aliquoted into 48 wells of a 384-well plate. Within 2 days, bacteria that have undergone reversion to amino acid prototrophy will form colonies. Products of bacteria metabolism reduce pH of the medium, changing the color of wells from purple to yellow.
The test procedure provided by Xenometrix and described in detail elsewhere was followed. Bacterial strains were grown overnight (14–16 h) in exposure medium in a shaker incubator and then exposed to KM-568 in 24-well plates for 90 min at 37 °C with agitation. Final KM-568 concentrations in the assay were 0.1, 0.2, and 0.5 mM. After preincubation, the cultures were diluted in the indicator medium and the contents of each 24-well culture were transferred to 48 wells on a 384-well plate and incubated further for 48 h at 37 °C without agitation. After the exposure, the number of wells containing bacteria was scored for yellow wells. […] Pure DMSO was used as a negative control. All doses were performed in triplicate.
The fold increase of revertants relative to the solvent control was determined by dividing the mean number of positive wells at each dose by the solvent control at baseline. The solvent control at baseline was calculated as the mean number of positive wells in the solvent control plus one standard deviation (SD). When an increase of more than twofold relative to the baseline at more than one dose with a dose–response was observed, the sample was classified as positive, whereas when no response > 2 times the baseline and no dose–response was stated, the sample was classified as negative.

For series [3], the system named is HepG2 cells. In words: LDH cytotoxicity assay, HepG2. It is filed as cell-based, human. As to conditions: HepG2, up to 100 µM, 24 h. The procedure: Human liver cancer HepG2 cell line (ATCC HB8065) and rat cardiomyoblast cell line H9c2 (ATCC-CRL1446) were purchased in ATCC (American Type Culture Collection, Manassas, VA, USA). The cells were cultured in standard conditions (37 °C, 5% CO2) in EMEM medium (ATCC, Manassas, VA, USA), supplemented with 10% FBS (Gibco, Waltham, MA, USA) and antibiotics (1% streptomycin/penicillin mixture, Sigma–Aldrich, Darmstadt, Germany) or DMEM high glucose (ATCC, Manassas, VA, USA) supplemented with 10% FBS (Gibco, Waltham, MA, USA) and antibiotics (1% streptomycin/penicillin mixture, Sigma–Aldrich, Darmstadt, Germany), respectively.
Cells were seeded at density 5 × 10^4 cells/per well. After 24 h, KM-568 and reference standard DOX were added to final concentrations of 0.1; 0.5; 1.0; 10; 25; 50; 100; 200 µM. After 24 h incubation, plates were centrifuged (400 g, 2 min) and 50 μL of the supernatant was transferred into the corresponding 96-well plate. […] Next, stop solution was added and absorbance was measured at 490 nm on a multi-well plate reader (Spectra Max iD3, Molecular Devices, San Jose, CA, USA). Cytotoxicity was determined as follows: cytotoxicity (%)=[(compound LDH activity – spontaneous LDH activity)/(maximum LDH activity – spontaneous LDH activity)] × 100. […]

Series [4] deals with T1, human recombinant TRPV1 receptor expressed in CHO cells (Homo sapiens, UniProt Q8NER1).
T1 construct: host or cells: CHO cells
Briefly: TRPV1 functional assay (agonist and antagonist effects). As to conditions: 10 µM. Type of series: cell-based. The procedure: In order to identify molecular mechanism of action, KM-568 was tested at 10 µM in three radioligand binding assays: rat cerebral cortex GABA receptor non-selective agonist radioligand, AMPA (α-amino-3-hydroxy-5-methyl-4-isoxazolepropionic acid) receptor agonist radioligand, and NMDA (N-methyl-D-aspartate) receptor antagonist radioligand as well as one functional assay involving a human recombinant TRPV1 receptor expressed in CHO cells (agonist and antagonist effects).
Tests were performed by Eurofins Cerep (Eurofins CEREP SA, Celle-Lévescault, France) as a commercial service. In radioligand assays, rat cerebral cortex GABA receptor as well as rat cerebral cortex AMPA (α-amino-3-hydroxy-5-methyl-4-isoxazolepropionic acid) and NMDA (N-methyl-D-aspartate) receptors with 10 nM [^3H]GABA, 8 nM [^3H]AMPA, and 5 nM [^3H]CGP39653, respectively, were used. The results were detected by means of scintillation counting. In functional assays, a human recombinant TRPV1 receptor expressed in Chinese hamster ovary (CHO) cells with 1 µM capsaicin or 30 nM capsazepine were used. Fluorimetry was used as a detection method.

In series [5] the test system is Frings audiogenic seizure-susceptible mice. In words: Frings audiogenic seizure-susceptible mouse model. It is filed as in vivo. As to conditions: 0.25 h; for Results (protected/tested animals): Frings mice, i.p. As to the method: Frings audiogenic seizure-susceptible mice are genetically susceptible to sound-induced reflex seizures. Mice (18–25 g) were administered i.p. compound KM-568 at the doses in the range of 10.0–17.5 mg/kg. Fifteen minutes later, an individual mouse was placed in a round plexiglass jar (15 cm diameter, 18 cm high) and exposed to a sound stimulus of 110 decibels (11 kHz) delivered for 20 sec.

T1 sequence (Q8NER1 whole entry): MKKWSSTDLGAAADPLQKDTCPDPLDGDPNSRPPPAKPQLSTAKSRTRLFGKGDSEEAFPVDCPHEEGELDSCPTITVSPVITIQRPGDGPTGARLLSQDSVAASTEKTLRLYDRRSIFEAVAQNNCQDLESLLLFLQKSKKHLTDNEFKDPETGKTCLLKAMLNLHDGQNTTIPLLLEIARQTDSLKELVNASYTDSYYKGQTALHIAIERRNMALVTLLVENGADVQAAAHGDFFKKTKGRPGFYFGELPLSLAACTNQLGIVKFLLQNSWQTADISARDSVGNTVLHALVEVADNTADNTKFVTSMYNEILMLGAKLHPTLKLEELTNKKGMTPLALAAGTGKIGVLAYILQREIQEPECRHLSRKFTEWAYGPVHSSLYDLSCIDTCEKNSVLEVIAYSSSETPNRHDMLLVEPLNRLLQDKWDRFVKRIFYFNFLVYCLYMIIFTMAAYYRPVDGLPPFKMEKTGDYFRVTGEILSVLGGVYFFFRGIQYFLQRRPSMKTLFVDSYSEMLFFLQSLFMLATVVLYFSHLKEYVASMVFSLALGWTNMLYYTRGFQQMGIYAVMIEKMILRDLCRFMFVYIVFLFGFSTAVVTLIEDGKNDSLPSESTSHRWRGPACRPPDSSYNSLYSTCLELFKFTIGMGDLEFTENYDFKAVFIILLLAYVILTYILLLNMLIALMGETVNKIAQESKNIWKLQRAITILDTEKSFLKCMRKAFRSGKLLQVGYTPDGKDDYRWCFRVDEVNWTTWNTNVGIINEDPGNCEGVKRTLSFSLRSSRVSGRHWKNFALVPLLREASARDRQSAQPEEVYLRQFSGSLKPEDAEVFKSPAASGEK

As to `C[C@H](O)CNC(=O)/C=C/c1ccccc1` [KM-568, S(+)-(2E)-N-(2-hydroxypropyl)-3-phenylprop-2-enamide], in series [1] (44 mg/kg i.p.), the “Clonus (calculated metrazol dose causing clonus)” value is reported as 50.8 ± 3.5 mg/kg, the “Twitch (calculated metrazol dose causing first twitch)” value is 37.8 ± 1.4 mg/kg, the Time to clonus was 48.2 ± 3.5 s and the Time to twitch came out at 35.8 ± 1.5 s. Besides, in series [1] (148 mg/kg i.p.), the “Clonus (calculated metrazol dose causing clonus)” value is listed as 80.2 ± 3.2 mg/kg, the “Twitch (calculated metrazol dose causing first twitch)” value was 61.3 ± 2.2 mg/kg, the Time to clonus is 75.9 ± 2.9 s and the Time to twitch worked out at 57.9 ± 1.6 s. In series [2], the fold induction at 90 min, 0.1 mM stood at 0.1; the fold induction at 90 min, 0.2 mM came to 0.9; the fold induction at 90 min, 0.5 mM came to 0.7. Besides, in series [3], the “cytotoxic effect, LDH assay” value is listed as “no cytotoxic effect”. For the same compound, in series [4], the TRPV1 agonist effect entry is given as “No significant effects” and the TRPV1 antagonist effect entry was “No significant effects”. Besides, the “Results (protected/tested animals)” value in series [5] (10.0 mg/kg) is recorded as 1/8. Besides, in series [5] (12.5 mg/kg), the “Results (protected/tested animals)” value is reported as 3/8. In addition, in series [5] (15.0 mg/kg), the “Results (protected/tested animals)” value is 6/8. Moreover, the “Results (protected/tested animals)” value in series [5] (17.5 mg/kg) is on record as 7/8. In series [5] (Mus musculus, ip), this compound displayed an ED50 of 13.2 mg/kg.
